This is an account of results in patent US6407311B1, “Methods for production of hybrid wheat” (Yeda Research & Development Co., Ltd., priority 1997, dated 2002).

The test system of assay [1] is cultivars carrying the dominant allele Su-B1 (e.g., Cappelle Desprez). The settings on record: Snape et al, 1991; cited from earlier work.
The test system of assay [2] is plants of common wheat homozygous for the herbicide susceptibility allele su-B1. The assay can be described thus: Spraying chlorotoluron on common wheat homozygous for su-B1. The class given is in vivo. To be noted: sprayed at double the rate recommended at commercial fields. An excerpt: To test the effect of chlorotoluron on the various genotypes we sprayed this herbicide at a rate which is double of the recommended at commercial fields on plants of common wheat homozygous for the herbicide susceptibility allele su-B1 and the line of Ae. searsii carrying the chlorotoluron resistance allele Su-S^s1. All plants carrying the recessive su-B1 allele died within 10-14 days from spraying while those carrying the dominant Su-S^s1 allele survived.

Assay [3] concerns cultivars carrying the recessive allele su-B1 (e.g., Chinese Spring). To be noted: Snape et al, 1991; cited from earlier work.
The subject of assay [4] is plants with 2n=42 (lacking the EC-HR1). The assay can be described thus: Chlorotoluron on selfed progeny of EC-HR1 monosomic addition plants, 2n=42. The class given is in vivo, common wheat. From the text:
(§1) To construct the engineered chromosome EC-HR1, the dominant chlorotoluron resistance allele Su-S^s1 is transferred from chromosome arm 6S^sL of a selected line of Ae. searsii into the 6S^lL arm of the engineered chromosome EC-H1. This is achieved by crossing a […] female parent derived from the male-fertile maintainer line in the common wheat cultivar Chinese Spring. This female parent is homozygous for the ms-B1, su-B1 and Ki-B1 alleles and has, as a monosomic addition, the engineered chromosome EC-H1 (4S^sS/6S^lL) carrying on its short arm the Ms-S^s1 and rht-S^s1 alleles and on its long arm the su-S1ki-S^l1-a alleles, with a line of the diploid species Ae. searsii carrying the chlorotoluron resistance allele on the long arm of chromosome 6S^s, i.e., on 6S^sL, as well as the Ms-S^s1 and rht-S^s1 alleles on 4S^sS. About 20% of the F1 progeny have the engineered chromosome EC-H1 and therefore contain 2n=29 chromosomes and can be distinguished from the other F1 plants having 2n=28. […] Pollinating the 2n=29 F1 plants once or twice with Chinese Spring, homozygous for su-B1 yields plants with 2n=43 (21″+1′) containing the desired engineered chromosome EC-HR1 as a monosomic addition.

Assay [5] concerns line of Ae. searsii carrying the chlorotoluron resistance allele Su-S^s1. The assay can be described thus: Spraying chlorotoluron on the Ae. searsii line carrying Su-S^s1. Type of assay: in vivo, Aegilops searsii. To be noted: sprayed at double the rate recommended at commercial fields. From the text:
Different cultivars of common wheat show different reaction to the herbicide chlorotoluron and to other phenyl derivatives of urea; several cultivars carrying the dominant allele Su-B1 (e.g., Cappelle Desprez) are resistant while others carrying the recessive allele su-B1 (e.g., Chinese Spring) are susceptible (Snape et al, 1991). The gene is located on the long arm of chromosome 6B (6BL) about 0.5 cM from the centromere. […] Since chromosome 6S^sL of Ae. searsii pairs almost regularly with 6S^lL of Ae. longissima, it is possible to transfer the resistance allele to the 6S^lL arm of the engineered chromosome EC-H (FIGS. 8a,b), thus producing the engineered chromosome of the EC-HR type. […] The presence of the chlorotoluron resistance allele on the engineered chromosome facilitates the selective killing, in each generation, of the male-sterile plants that lack the engineered chromosome while unaffecting the male-fertile maintainer plants (with the engineered chromosome) in the progeny of the selfed maintainer. This will assure, that in each generation, only the male-fertile offspring of the selfed maintainer, will grow. […]

The test system of assay [6] is lines of diploid Aegilops species. Put plainly: Reaction of lines of diploid Aegilops species to chlorotoluron. Type of assay: in vivo. The settings on record: most lines. An excerpt:
Different cultivars of common wheat show different reaction to the herbicide chlorotoluron and to other phenyl derivatives of urea; several cultivars carrying the dominant allele Su-B1 (e.g., Cappelle Desprez) are resistant while others carrying the recessive allele su-B1 (e.g., Chinese Spring) are susceptible (Snape et al, 1991). The gene is located on the long arm of chromosome 6B (6BL) about 0.5 cM from the centromere. […] Since chromosome 6S^sL of Ae. searsii pairs almost regularly with 6S^lL of Ae. longissima, it is possible to transfer the resistance allele to the 6S^lL arm of the engineered chromosome EC-H (FIGS. 8a,b), thus producing the engineered chromosome of the EC-HR type. […] The presence of the chlorotoluron resistance allele on the engineered chromosome facilitates the selective killing, in each generation, of the male-sterile plants that lack the engineered chromosome while unaffecting the male-fertile maintainer plants (with the engineered chromosome) in the progeny of the selfed maintainer. This will assure, that in each generation, only the male-fertile offspring of the selfed maintainer, will grow.

Assay [7] concerns plants with 2n=43 carrying the EC-HR1. Put plainly: Chlorotoluron on selfed progeny of EC-HR1 monosomic addition plants, 2n=43. Type of assay: in vivo, common wheat.
Text: as §1

Turning to `Cc1ccc(NC(=O)N(C)C)cc1Cl` [chlorotoluron, 3-(3-chloro-p-tolyl)-1,1-dimethylurea], the “reaction to the herbicide” value in assay [1] is on record as “resistant”; in assay [3], “susceptible”; in assay [6] it was “susceptible”. Besides, the “outcome of plants after spraying” value is “died” in assay [2] and “survived” in assay [5]. The “time to death from spraying” value in assay [2] was 10 to 14 days. Further, the “effect on plants lacking the resistance allele” value in assay [4] is given as “kills all plants”. In assay [7], the “effect on plants carrying EC-HR1” value is recorded as “unaffected”.
